Laboratory results from patent US7166622B2, “Substituted phenylsulfonamide inhibitors of beta amyloid production” (Wyeth, priority 2002, dated 2007).

How the values were obtained:
[1] = system: beta amyloid production; assay: Repressor Release Assay (RRA); type: cell-based; conditions: Conc 20 μg/ml; luciferase activity over diluent control; read-out: APPI Fold Increase
Method in brief: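 CHO-K1 cells transiently co-transfected with pRSVO-luc and an APP-lacI construct, replated, then treated in duplicate for 36-48 h at 37 °C, 5% CO2. Compounds diluted in 25 mM Hepes, with Hepes/1% DMSO as diluent control. Luciferase read-out in relative light units; toxicity scored 1 non-toxic, 0 toxic.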

[2] = system: CHO-K1 cells; assay: Toxicity in RRA (loss of luciferase signal); conditions: Conc 20 μg/ml; toxicity = loss of signal (<0.75 fold increase)
Procedure: The beta amyloid inhibitory activity of the compounds of the present invention was determined using the Repressor Release Assay (RRA).
“Fold Increase” refers to the amount of luciferase activity (measured in relative light units) over diluent control. “SEM” refers to the standard error of the mean for fold increase.

Row | Compound | melting point [°C] | fold induction at 20 µg/mL [1] | (%)APPI Toxicity [2]
1 | CC[C@H](C)[C@@H](CO)NS(=O)(=O)c1ccc(Cl)c(N)c1 [Example 14, 3-Amino-4-chloro-N-[(1S,2S)-1-(hydroxymethyl)-2-methylbutyl]benzenesulfonamide] | 89 to 92 | 1.9 | 1 (1=non-toxic)
2 | O=S(=O)(N[C@H](CO)C1CCCCC1)c1ccc(Cl)cc1 [Example 272, 4-Chloro-N-[(1S)-1-cyclohexyl-2-hydroxyethyl]benzenesulfonamide] | 115 to 118 | 2.3 | 1 (1=non-toxic)
3 | CC(C)[C@@H](CO)NS(=O)(=O)c1ccc(Br)cc1 [Example 275, 4-Bromo-N-[(1S)-1-(hydroxymethyl)-2-methylpropyl]benzenesulfonamide] | 89 to 94 | 2 | 1 (1=non-toxic)
4 | CC[C@H](C)[C@@H](CO)NS(=O)(=O)c1ccc(I)cc1 [Example 276, 4-Iodo-N-[(1S,2S)-1-(hydroxymethyl)-2-methylbutyl]benzenesulfonamide] | 118 to 120 | 2 | 1 (1=non-toxic)
5 | CC(C)(C)[C@@H](CO)NS(=O)(=O)c1ccc(Cl)cc1 [Example 277, 4-Chloro-N-[(1S)-1-(hydroxymethyl)-2,2-dimethylpropyl]benzenesulfonamide] | 128 to 130 | 1.5 | 1 (1=non-toxic)

Second part, led by results:

Row | melting point [°C] | Compound | fold induction at 20 µg/mL [1] | (%)APPI Toxicity [2]
6 | 127 to 128 | O=S(=O)(N[C@H](CO)c1ccccc1)c1ccc(Cl)cc1 [Example 273, 4-Chloro-N-[(1S)-2-hydroxy-1-phenylethyl]benzenesulfonamide] | 1.5 | 1 (1=non-toxic)
7 | 83 to 85 | CC(C)[C@@H](CO)NS(=O)(=O)c1ccc(Cl)cc1 [Example 274, 4-Chloro-N-[(1S)-1-(hydroxymethyl)-2-methylpropyl]benzenesulfonamide] | 2.1 | 1 (1=non-toxic)
